Source: PMC4874602 (ACS Infectious Diseases, 2016)
Several values for one entry are separate records, joined by “and”; a condition that tells them apart may be missing. Equal values may be shown once. Read-outs that look alike come from different tables or passages of the source.

Tests used:
in vivo [1] = conditions: BALB/c and C3HeB/FeJ, mouse
in vivo [2] = conditions: C3HeB/FeJ, mouse, po; for half-life: t1/2, C3HeB/FeJ
M. tuberculosis Erdman [3] = assay type: in vivo, Mycobacterium tuberculosis; conditions: BALB/c, 4 weeks of treatment
[4] = C3HeB/FeJ; for AUC168h: single 25 mg/kg oral dose of BDQ; for AUC8h: single 150 mg/kg oral dose of PZA
M. tuberculosis Erdman [5] = assay type: in vivo, Mycobacterium tuberculosis
[6] = BALB/c; for AUC168h: single 25 mg/kg oral dose of BDQ; for AUC8h: single 150 mg/kg oral dose of PZA
in vivo [7] = conditions: BALB/c, mouse, po; for half-life: t1/2, BALB/c
THP-1 cells = conditions: 30 min exposure, 1 mM PZA, 0.4 mM POA
[8] = 25 mg/kg, AUCUL/AUCplasma, uninvolved lung, single 25 mg/kg oral dose of BDQ
[9] = 25 mg/kg, AUCWL/AUCplasma, whole lung, single 25 mg/kg oral dose of BDQ
[10] = 25 mg/kg, plasma, single 25 mg/kg oral dose of BDQ
[11] = 25 mg/kg, uninvolved lung, single 25 mg/kg oral dose of BDQ
[12] = 25 mg/kg, whole lung, single 25 mg/kg oral dose of BDQ
[13] = 25 mg/kg, lesion (type I), single 25 mg/kg oral dose of BDQ
[14] = C3HeB/FeJ less-responsive subpopulation, BDQ 10 mg/kg
[15] = 25 mg/kg, lesion (type III), single 25 mg/kg oral dose of BDQ
[16] = 150 mg/kg, AUCUL/AUCplasma, uninvolved lung, single 150 mg/kg oral dose of PZA
[17] = 150 mg/kg, AUCWL/AUCplasma, whole lung, single 150 mg/kg oral dose of PZA
[18] = 150 mg/kg, plasma, single 150 mg/kg oral dose of PZA
[19] = 150 mg/kg, uninvolved lung, single 150 mg/kg oral dose of PZA
[20] = 150 mg/kg, whole lung, single 150 mg/kg oral dose of PZA
[21] = 150 mg/kg, lesion (type I), single 150 mg/kg oral dose of PZA
[22] = 150 mg/kg, plasma, single 150 mg/kg oral dose of PZA, 2.5–8 h terminal
[23] = 150 mg/kg, lesion (type III), single 150 mg/kg oral dose of PZA

`COc1nc2ccc(Br)cc2cc1[C@@H](c1ccccc1)[C@@](O)(CCN(C)C)c1cccc2ccccc12` [BDQ, bedaquiline] gave a Tmax (in vivo [1]; 25 mg/kg) of 3 h, an AUC(0-t) (in vivo [2]; 25 mg/kg) of 35900 ng·h/mL and a Kp (in vivo [2]; 25 mg/kg, AUCLes/AUCplasma, lesion (type I), single 25 mg/kg oral dose of BDQ) of 10.8. The Kp (in vivo [2]; [8]) was 18.2, the Kp (in vivo [2]; [9]) was 20.6 and the Cmax (in vivo [2]; 25 mg/kg, lesion (caseous necrotic granuloma, type I), single 25 mg/kg oral dose of BDQ) was 10100 ng/g. It also gave a Cmax (in vivo [2]; [10]) of 2720 ng/mL, a Cmax (in vivo [2]; [11]) of 23300 ng/g and a Cmax (in vivo [2]; [12]) of 22900 ng/g. It also gave a half-life (in vivo [2]; [13]) of 104 h, a half-life (in vivo [2]; [11]) of 84.1 h and a half-life (in vivo [2]; [12]) of 130 h. The Tmax (in vivo [2]; [13]) was 8 h, the Tmax (in vivo [2]; [10]) was 4 h and the Tmax (in vivo [2]; [11]) was 8 h. For the same molecule, the Tmax (in vivo [2]; [12]) was 8 h, the “log10 CFU reduction in lungs” value (M. tuberculosis Erdman [3]; BDQ 10 mg/kg oral gavage) was 3.1 log10 CFU and the “log10 CFU reduction in lungs” value (M. tuberculosis Erdman [3]; BDQ 25 mg/kg oral gavage) was 4.1 log10 CFU. For the same molecule, the “concentration in dissected caseum of type I granulomas (LC/MS/MS)” value ([4]; 8 h following a single 25 mg/kg dose of BDQ, preliminary) was 974.5 ng/g, the AUC168h ([4]; lesion (type I)) was 387.1 µg·h/g and the AUC168h ([4]; uninvolved lung) was 653.9 µg·h/g. The AUC168h ([4]; whole lung) was 739.42 µg·h/g, the “activity against the less-responsive subpopulation” value (M. tuberculosis Erdman [5]; [14]) was “only bacteriostatic” and the “rate of decrease in log10 CFU in the lungs between 4 and 8 weeks of treatment” value (“rate of decrease in log10 CFU” for short) (M. tuberculosis Erdman [5]; [14]) was 0.0129 log10 CFU/week. For the same molecule, the “rate of decrease in log10 CFU” value (M. tuberculosis Erdman [5]; C3HeB/FeJ responsive subpopulation, BDQ 10 mg/kg) was 0.4392 log10 CFU/week, the “rate of decrease in log10 CFU” value (M. tuberculosis Erdman [5]; C3HeB/FeJ responsive subpopulation, BDQ 25 mg/kg) was 0.3606 log10 CFU/week and the AUC168h ([6]; lesion (type III), 25 mg/kg) was 949 µg·h/g and 949.6 µg·h/g. It also gave an AUC168h ([6]; uninvolved lung) of 956.6 µg·h/g, an AUC168h ([6]; whole lung) of 694.0 µg·h/g and an AUC(0-t) (in vivo [7]; 25 mg/kg) of 33700 ng·h/mL. For the same molecule, the Kp (in vivo [7]; 25 mg/kg, AUCLes/AUCplasma, lesion (type III), single 25 mg/kg oral dose of BDQ) was 28.2, the Kp (in vivo [7]; [8]) was 28.4 and the Kp (in vivo [7]; [9]) was 20.6. The Cmax (in vivo [7]; 25 mg/kg, lesion (cellular non-necrotizing, type III), single 25 mg/kg oral dose of BDQ) was 31700 ng/g, the Cmax (in vivo [7]; [11]) was 36000 ng/g and the Cmax (in vivo [7]; [12]) was 22100 ng/g. The half-life (in vivo [7]; [15]) was 85.5 h, the half-life (in vivo [7]; [11]) was 67.4 h and the half-life (in vivo [7]; [12]) was 74.5 h. For the same molecule, the Tmax (in vivo [7]; [15]) was 8 h and the Tmax (in vivo [7]; [12]) was 8 h.
Work on `O=C(O)c1cnccn1` [POA, pyrazinoic acid] yielded a Tmax (in vivo [1]; 150 mg/kg) of 0.5 to 1 h, an AUC(0-t) (in vivo [2]; 150 mg/kg) of 58700 ng·h/mL and a Kp (in vivo [2]; 150 mg/kg, AUCLes/AUCplasma, lesion (type I), single 150 mg/kg oral dose of PZA) of 1.28. The Kp (in vivo [2]; [16]) was 0.52, the Kp (in vivo [2]; [17]) was 0.75 and the Cmax (in vivo [2]; 150 mg/kg, lesion (caseous necrotic granuloma, type I), single 150 mg/kg oral dose of PZA) was 12500 ng/g. For the same molecule, the Cmax (in vivo [2]; [18]) was 14200 ng/mL, the Cmax (in vivo [2]; [19]) was 8300 ng/g and the Cmax (in vivo [2]; [20]) was 9000 ng/g. The half-life (in vivo [2]; [21]) was 12.1 h, the half-life (in vivo [2]; [22]) was 2.4 h and the half-life (in vivo [2]; [19]) was 3.9 h. It also gave a half-life (in vivo [2]; [20]) of 5.13 h, a Tmax (in vivo [2]; [21]) of 1 h and a Tmax (in vivo [2]; [18]) of 0.75 h. For the same molecule, the Tmax (in vivo [2]; [19]) was 1 h, the Tmax (in vivo [2]; [20]) was 1 h and the AUC8h ([4]; lesion (type I)) was 75.1 µg·h/g. For the same molecule, the AUC8h ([4]; uninvolved lung) was 30.4 µg·h/g, the AUC8h ([4]; whole lung) was 43.9 µg·h/g and the “accumulation within THP-1 cells” value (THP-1 cells) was “accumulated to a very low degree”. For the same molecule, the AUC8h ([6]; lesion (type III)) was 99.5 µg·h/g, the AUC8h ([6]; uninvolved lung) was 39.0 µg·h/g and the AUC8h ([6]; whole lung) was 53.7 µg·h/g. It also gave an AUC(0-t) (in vivo [7]; 150 mg/kg) of 127000 ng·h/mL, a Kp (in vivo [7]; 150 mg/kg, AUCLes/AUCplasma, lesion (type III), single 150 mg/kg oral dose of PZA) of 0.78 and a Kp (in vivo [7]; [16]) of 0.31. For the same molecule, the Kp (in vivo [7]; [17]) was 0.42, the Cmax (in vivo [7]; 150 mg/kg, lesion (cellular non-necrotizing, type III), single 150 mg/kg oral dose of PZA) was 25000 ng/g and the Cmax (in vivo [7]; [18]) was 42500 ng/mL. The Cmax (in vivo [7]; [19]) was 10300 ng/g, the Cmax (in vivo [7]; [20]) was 14700 ng/g and the half-life (in vivo [7]; [23]) was 0.83 h. The half-life (in vivo [7]; [22]) was 1.24 h, the half-life (in vivo [7]; [19]) was 0.24 h and the half-life (in vivo [7]; [20]) was 0.24 h. It also gave a Tmax (in vivo [7]; [23]) of 1 h, a Tmax (in vivo [7]; [18]) of 0.5 h and a Tmax (in vivo [7]; [19]) of 0.5 h. The Tmax (in vivo [7]; [20]) was 0.5 h.
